According to PMC10039885, “Unnatural activities and mechanistic insights of cytochrome P450 PikC gained from site-specific mutagenesis by non-canonical amino acids” (Nature Communications, 2023):

Biological target: T1, PikC (PikCWT; cytochrome P450 CYP107L1) (Streptomyces venezuelae, UniProt O87605)
T1 construct: pET28a-pikC, expressed in E. coli BL21(DE3), Ni-NTA purified; heme protein
T1 sequence (O87605 1-416): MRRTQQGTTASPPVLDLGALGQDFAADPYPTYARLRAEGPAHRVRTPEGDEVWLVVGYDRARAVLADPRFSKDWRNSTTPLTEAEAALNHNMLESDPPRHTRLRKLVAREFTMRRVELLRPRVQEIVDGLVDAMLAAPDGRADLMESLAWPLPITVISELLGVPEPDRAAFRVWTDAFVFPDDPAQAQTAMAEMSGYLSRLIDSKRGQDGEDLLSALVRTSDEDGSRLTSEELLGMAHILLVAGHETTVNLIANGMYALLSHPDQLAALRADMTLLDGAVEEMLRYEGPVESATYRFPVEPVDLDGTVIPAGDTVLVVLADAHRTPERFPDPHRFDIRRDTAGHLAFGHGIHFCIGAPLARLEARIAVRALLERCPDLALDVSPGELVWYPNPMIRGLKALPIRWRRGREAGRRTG
Experiment: UV-vis difference spectral titration ([…]-420 nm)
Type: binding

Row | SMILES | Kd
1 | CC[C@H]1OC(=O)[C@H](C)[C@@H](O[C@@H]2O[C@H](C)C[C@H](N(C)C)[C@H]2O)[C@@H](C)C[C@@H](C)C(=O)/C=C/[C@H]1C [compound 4, YC-17] | 178 µM
2 | CC[C@H]1OC(=O)[C@H](C)C(=O)[C@H](C)[C@@H](O[C@@H]2O[C@H](C)C[C@H](N(C)C)[C@H]2O)[C@@H](C)C[C@@H](C)C(=O)/C=C/[C@H]1C [compound 5, narbomycin] | 374 µM
